Test results: article PMC9020998 (Oxidative Medicine and Cellular Longevity, 2022)
Several values for one entry are separate records, joined by “and”; a condition that tells them apart may be missing. Equal entries are not always repeated. Where two headings read alike, the source gives them in different places.

Key:
[1] = ABTS free radical scavenging assay; type: biochemical; details: for ABTS IC50: ABTS radical scavenging, absorbance at 734 nm
Procedure: The ABTS free radical scavenging antioxidant activity of the compounds was performed by using the previously reported methods. In this activity, the compounds scavenge ABTS^+ cations, and thus, a reduction in absorption is observed at 734 nm using a UV-visible spectrophotometer. Solutions of 7 mM ABTS and 2.45 mM of […] were prepared and were mixed. The mixture was stored at dark for about 16 h to get ABTS cations which appeared dark in color. The solution of ABTS cation was diluted with phosphate buffer (0.01 M having pH of 7.4); the absorbance value (0.70) was adjusted at 734 nm. To confirm the ABTS radicals' scavenging capacity, 300 μL solution of compound was mixed with 3.0 mL of ABTS. After one minute, the reduction in absorption was noted and was monitored for six minutes. The ascorbic acid was used as positive control in this activity. The experiments were repeated three times. The percent inhibitions and its IC50 values were measured as per the standard method.

[2] = DPPH free radical scavenging assay; type: biochemical
Procedure: The 1,1-diphenyl-2-picrylhydrazyl free radicals of the compounds were performed by using the reported method. Different concentrations of the compounds were mixed with DPPH methanolic solution of 0.004%. After half an hour, the absorption was determined with a double-beam UV-visible spectrophotometer at 517 nm. The same standard (ascorbic acid) was used as in the ABTS assay. The experiments were repeated three times. The percent inhibitions and IC50 values of the compounds were calculated with the standard formula.

[3] = biological target: AChE (Homo sapiens, UniProt P22303); test: biochemical
Sequence of AChE (P22303 32-614): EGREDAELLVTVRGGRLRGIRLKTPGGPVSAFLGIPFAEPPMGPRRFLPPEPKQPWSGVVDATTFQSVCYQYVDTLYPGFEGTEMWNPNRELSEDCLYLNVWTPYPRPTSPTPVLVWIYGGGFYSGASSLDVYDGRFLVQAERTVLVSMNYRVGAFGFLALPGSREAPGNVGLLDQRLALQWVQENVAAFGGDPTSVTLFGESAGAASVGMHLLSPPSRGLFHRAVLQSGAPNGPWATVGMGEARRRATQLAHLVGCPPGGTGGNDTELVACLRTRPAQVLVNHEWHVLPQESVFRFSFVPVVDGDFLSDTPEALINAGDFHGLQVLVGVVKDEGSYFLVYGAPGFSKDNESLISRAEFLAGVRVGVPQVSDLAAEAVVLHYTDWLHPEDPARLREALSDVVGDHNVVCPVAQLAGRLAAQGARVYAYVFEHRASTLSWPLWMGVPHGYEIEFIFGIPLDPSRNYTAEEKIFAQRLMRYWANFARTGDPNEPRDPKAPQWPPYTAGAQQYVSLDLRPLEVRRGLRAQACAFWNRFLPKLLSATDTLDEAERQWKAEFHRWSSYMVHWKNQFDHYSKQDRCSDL
Procedure: (§1) The two enzymes break down their respective thiocholine iodide to produce the ion 5-thio-2-nitrobenzoate. […] The enzyme dilutions were prepared in phosphate buffer having pH of 8. Parallelly, the acetyl and butyrylthiocholine iodide solutions (0.05 mM) and DTNB were also prepared in H2O (distilled water of our laboratory) and were stored at 8°C for 15 min. […] The experiments were performed three times. The percent inhibitions and their subsequent IC50 values were calculated as per the standard formula [43].

[4] = biological target: BChE (Homo sapiens, UniProt P06276); test: Anticholinesterase assay (BChE); type: biochemical
Sequence of BChE (P06276 29-602, species assumed): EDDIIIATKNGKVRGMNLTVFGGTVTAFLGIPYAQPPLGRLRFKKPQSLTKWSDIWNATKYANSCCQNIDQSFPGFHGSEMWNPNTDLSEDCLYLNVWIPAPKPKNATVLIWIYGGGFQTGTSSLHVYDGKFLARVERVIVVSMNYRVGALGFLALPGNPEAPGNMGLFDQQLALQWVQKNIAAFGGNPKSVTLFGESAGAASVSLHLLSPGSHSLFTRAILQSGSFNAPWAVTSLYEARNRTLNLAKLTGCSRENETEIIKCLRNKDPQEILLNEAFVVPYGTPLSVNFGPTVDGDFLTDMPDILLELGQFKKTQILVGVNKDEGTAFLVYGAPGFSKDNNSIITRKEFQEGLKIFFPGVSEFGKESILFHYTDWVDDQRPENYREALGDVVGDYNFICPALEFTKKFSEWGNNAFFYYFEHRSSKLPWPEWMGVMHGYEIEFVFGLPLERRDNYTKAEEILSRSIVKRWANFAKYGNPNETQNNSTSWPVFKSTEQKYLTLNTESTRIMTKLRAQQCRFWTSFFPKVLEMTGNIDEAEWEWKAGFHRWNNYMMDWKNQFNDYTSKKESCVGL
Procedure: as §1

[5] = biological target: COX-1 (Homo sapiens, UniProt P23219); test: Anticyclooxygenase assay (COX-1); type: biochemical
Sequence of COX-1 (P23219 24-599): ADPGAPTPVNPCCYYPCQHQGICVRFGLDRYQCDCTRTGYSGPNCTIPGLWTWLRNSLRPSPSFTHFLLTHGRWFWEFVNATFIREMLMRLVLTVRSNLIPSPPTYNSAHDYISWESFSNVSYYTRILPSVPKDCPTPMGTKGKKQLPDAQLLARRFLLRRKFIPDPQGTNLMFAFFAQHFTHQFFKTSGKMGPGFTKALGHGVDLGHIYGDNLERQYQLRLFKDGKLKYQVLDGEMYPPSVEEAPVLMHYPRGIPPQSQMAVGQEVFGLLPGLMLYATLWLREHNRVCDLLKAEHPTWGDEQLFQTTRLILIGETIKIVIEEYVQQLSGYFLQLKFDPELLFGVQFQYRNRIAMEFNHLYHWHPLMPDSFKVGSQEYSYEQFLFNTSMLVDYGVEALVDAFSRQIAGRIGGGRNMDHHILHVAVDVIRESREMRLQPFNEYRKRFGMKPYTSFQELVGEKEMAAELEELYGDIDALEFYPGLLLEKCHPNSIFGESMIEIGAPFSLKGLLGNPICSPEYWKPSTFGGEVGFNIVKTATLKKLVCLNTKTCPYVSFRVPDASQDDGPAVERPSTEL
Procedure: (§2) The COX-1 enzyme 10 μL and COX-2 300 units/mL were activated on ice for 5 min. The activation solution was accompanied by a cofactor of 50 μL containing glutathione, hematin, 1.0 mM, and TMPD in Tris-HCl buffer with pH of 8. […] The reaction was initiated when arachidonic acid 20 μL was added. The reaction was incubated for 5 min, and absorbance was measured at 570 nm as per the reported procedure. The experiments were repeated three times.

[6] = biological target: T1, COX-2 (Homo sapiens, UniProt P35354); test: Anticyclooxygenase assay (COX-2); type: biochemical
T1 sequence (P35354 18-604): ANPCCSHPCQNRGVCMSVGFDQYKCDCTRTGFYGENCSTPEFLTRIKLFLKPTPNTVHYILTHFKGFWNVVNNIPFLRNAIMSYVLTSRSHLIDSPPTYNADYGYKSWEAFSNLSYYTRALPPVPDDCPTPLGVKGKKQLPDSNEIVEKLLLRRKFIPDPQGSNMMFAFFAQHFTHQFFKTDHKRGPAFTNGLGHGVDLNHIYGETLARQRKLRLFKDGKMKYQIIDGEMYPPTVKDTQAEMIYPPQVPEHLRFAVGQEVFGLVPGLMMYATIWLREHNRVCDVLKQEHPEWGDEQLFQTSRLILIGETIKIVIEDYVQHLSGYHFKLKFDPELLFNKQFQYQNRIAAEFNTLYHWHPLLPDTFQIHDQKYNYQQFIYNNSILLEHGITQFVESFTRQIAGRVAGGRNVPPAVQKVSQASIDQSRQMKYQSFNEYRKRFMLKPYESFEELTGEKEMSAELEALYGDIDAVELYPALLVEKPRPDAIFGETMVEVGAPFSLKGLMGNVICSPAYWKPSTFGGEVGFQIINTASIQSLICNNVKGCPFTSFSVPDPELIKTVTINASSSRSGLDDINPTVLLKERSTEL
Procedure: as §2

[7] = biological target: 5-LOX; test: 5-Lipoxygenase assay (5-LOX); type: biochemical
Procedure: The lipoxygenase enzyme 10,000 unit/μL was used in the assay. The substrate used in this assay was linoleic acid. […] The combined mixture was incubated at 25°C for 5 min. Afterwards, linoleic acid was properly mixed with it and was kept for 5 min. […] The experiments were performed three times. The percent 5-LOX inhibitions and the IC50 values were calculated as per the standard formula [44].

[8] = biological target: T2, protein tyrosine phosphatase 1B (Homo sapiens, UniProt P18031); test: Protein tyrosine phosphatase 1B assay; type: biochemical
T2 sequence (P18031 1-435): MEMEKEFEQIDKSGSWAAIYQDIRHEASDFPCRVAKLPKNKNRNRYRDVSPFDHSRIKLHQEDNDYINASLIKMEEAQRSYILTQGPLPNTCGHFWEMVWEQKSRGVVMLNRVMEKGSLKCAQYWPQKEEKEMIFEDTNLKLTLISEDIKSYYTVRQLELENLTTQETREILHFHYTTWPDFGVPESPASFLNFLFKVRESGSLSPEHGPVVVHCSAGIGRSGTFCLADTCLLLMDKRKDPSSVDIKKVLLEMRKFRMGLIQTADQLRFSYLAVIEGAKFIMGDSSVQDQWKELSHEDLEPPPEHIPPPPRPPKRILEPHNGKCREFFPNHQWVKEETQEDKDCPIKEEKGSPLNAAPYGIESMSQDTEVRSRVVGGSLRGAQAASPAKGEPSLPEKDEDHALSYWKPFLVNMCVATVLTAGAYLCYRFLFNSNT
Procedure: In the PTP1B assay, 4-nitrophenylphosphate was used as substrate. The solution of dimethyl glutarate […] in buffer of pH 7 was prepared to be used in the assay. […] The solution was incubated at 37°C for 15 min. […] The experiments were performed three times. The percent inhibitions and their corresponding IC50 values were calculated as per the standard formula [46].

[9] = DPPH radical scavenging, absorbance at 517 nm
[10] = Tables 2 and 3 print no unit, text μg/mL, abstract μM
[11] = Table 2 prints no unit, text b63 μg/mL, abstract μM

O=C1O[C@H]([C@@H](O)CO)C(O)=C1O [Ascorbic acid, reference compound]
ABTS IC50 [1]: 0.211 µg/mL
DPPH IC50 [2, 9]: 0.840 µg/mL
DPPH IC50 [2, 10]: 0.840 ± 0.14 and 0.840 ± 0.04

OCc1ccco1 [Compound 1, Furan-2-ylmethanol]
ABTS IC50 [1]: 7.43 µg/mL
DPPH IC50 [2, 9]: 8.19 µg/mL

CC1=C(O)C(=O)C(C)(O)O1 (centres unmarked) [Compound 2, 2,4-Dihydroxy-2,5-dimethylfuran-3(2H)-one]
ABTS IC50 [1]: 3.005 µg/mL
ABTS percent inhibition ([1]; at 31.25 μg/mL): 66.44
ABTS percent inhibition ([1]; at 62.5 μg/mL): 71.47
ABTS percent inhibition ([1]; at 125 μg/mL): 77.39
ABTS percent inhibition ([1]; at 250 μg/mL): 83.34
ABTS percent inhibition ([1]; at 500 μg/mL): 88.36
DPPH IC50 [2, 9]: 1.61 µg/mL

C=Cc1ccc(O)cc1 [Compound 3, 4-Vinylphenol]
ABTS IC50 [1]: 12.60 µg/mL
DPPH IC50 [2, 9]: 10.27 µg/mL

COc1c(O)ccc(O)c1C [Compound 4, 2-Methoxy-3-methylbenzene-1,4-diol]
ABTS IC50 [1]: 4.63 µg/mL
DPPH IC50 [2, 9]: 3.19 µg/mL

COc1cc(C=O)ccc1O [Compound 5, 4-Hydroxy-3-methoxybenzaldehyde]
ABTS IC50 [1]: 8.28 µg/mL
DPPH IC50 [2, 9]: 2.12 µg/mL

COc1cc(/C=C2\CC(=O)N(c3ccc(O)cc3)C2=O)ccc1O [Compound 5A, (E)-3-(4-Hydroxy-3-methoxybenzylidene)-1-(4-hydroxyphenyl)pyrrolidine-2,5-dione]
IC50 [2]: 1.05 µM
DPPH IC50 [2, 10]: 1.05 ± 0.51
IC50 [3]: 10.6 µM
IC50 [3, 11]: 32.6 µM
SI (selectivity index AChE/BChE) ([3]; ratio of BChE IC50 to AChE IC50): 1.42
IC50 [4]: 15.1 µM
IC50 [4, 11]: 46.4 µM
IC50 ([5]; COX-1 IC50, Table 2 prints no unit, text b63 μg/mL, abstract μM): 42.8 µM
IC50 ([5]; COX-1 IC50, as printed in abstract): 13.9 µM
IC50 ([6]; COX-2 IC50, Table 2 prints no unit, text b63 μg/mL, abstract μM): 3.32 µM
IC50 ([6]; COX-2 IC50, as printed in abstract): 1.08 µM
SI (COX-2 selectivity index) ([6]; ratio of COX-1 and COX-2 IC50): 12.9
5-LOX IC50 ([7]; Table 2 prints no unit, text b63 μg/mL, abstract and b89 μM): 0.71 ± 0.10
IC50 ([7]; as printed in abstract and b89): 0.71 µM

COc1cc(/C=C2\SC(=O)NC2=O)ccc1O [Compound 5B, (Z)-5-(4-Hydroxy-3-methoxybenzylidene)thiazolidine-2,4-dione]
IC50 [2]: 1.94 µM
DPPH IC50 [2, 10]: 1.94 ± 1.20
IC50 ([8]; read-out: protein tyrosine phosphatase 1B IC50): 53.3 µM
IC50 ([8]; unit inferred, text b66 μg/mL, abstract μM, read-out: PTP1B IC50 (converted)): 212 µM

COc1cc(CC(C)=O)ccc1O [Compound 6, 1-(4-Hydroxy-3-methoxyphenyl)propan-2-one]
ABTS IC50 [1]: 9.55 µg/mL
DPPH IC50 [2, 9]: 9.99 µg/mL
